The numbers were not newly measured in patent US20160066563A1, “COMPOSITIONS AND METHODS FOR COLLECTING, WASHING, CRYOPRESERVING, RECOVERING AND RETURN OF LIPOASPIRATES TO PHYSICIAN FOR AUTOLOGOUS ADIPOSE TRANSFER PROCEDURES” (priority 2012, published 2016), which cites them from elsewhere.

The data set relates to cells. As to conditions: at room temperature or body temperature.

Molecules are shown by their SMILES.

With `C[S+](C)[O-]` [DMSO, dimethylsulfoxide], the toxicity to cells result is on record as “toxic to cells”.
Turning to `OCC(O)CO` [glycerol], the toxicity to cells result is reported as “not toxic”.
